The source of these data is US20070161123A1, “DETERMINATION OF CONCENTRATION OF FK778 BY COMPETITIVE IMMUNOASSAY” (priority 2006, published 2007).

In one data set the test system is antibody to FK778. Nature of the data set: Interference of prescription drugs in the […] FK778 competitive chemiluminescent immunoassay. In kind it is binding. As for the experimental part: FK778 assays were performed by an […]® instrument, commercially available from Abbott Laboratories, Abbott Park, Ill., according to the following procedure. See also U.S. Pat. Nos. 5,795,784 and 5,856,194, both of which are incorporated herein by reference. A serum sample (10 μL) was diluted with Line Diluent at a ratio of 1 part sample to 20 parts Line Diluent. A portion of the diluted sample (10 μL) was mixed with 90 μL of Conjugate Reagent and 50 μL of Line Diluent. Magnetic Microparticle Reagent (50 μL) and Bihapten Tracer Reagent (50 μL) were added to the foregoing mixture after a period of six (6) seconds. The resulting mixture (250 μL) was incubated for 25 minutes. The microparticles were washed three (3) times with 1 mL of Line Diluent. The magnetic particles were attracted to a magnet at the same time that they were being washed. The washed microparticles were treated with Pretrigger Reagent (100 μL acidic hydrogen peroxide). Finally, the chemiluminescent reaction was triggered by addition of Trigger Reagent (alkaline detergent solution (300 μL)). Measurement of light generated was carried out by means of a photomultiplier tube.
This example illustrates interference with prescription drugs. Interference was tested for 44 of 45 prescription drugs at levels recommended in NCCLS document EP-7P. Interference was tested in the presence of FK778 and absence of FK778 in the sample. Interference was defined as greater than 5 μg/mL (without FK778) or greater than 10% (with FK778). […] Both interferences were expected; fluorescein because of its competition with the FK778-fluorescein bihapten tracer and A77,1726 because of its similarity in structure to FK778.
Fluorescein is used in in vivo diagnostic procedures to measure blood flow in the eye and is not expected to be present in patients undergoing a transplant. 10 Nevertheless, fluorescein was tested more thoroughly to estimate the magnitude of the interference at concentrations lower than 400 μg/mL.
Additional testing was also carried out with A77, 1726 to assess the cross-reactivity of this molecule in the presence and absence of FK778.

For data set [1] the following is noted: humans; cited from earlier work.

With `C/C(O)=C(\C#N)C(=O)Nc1ccc(C(F)(F)F)cc1` [A77 1726], the “% Cross-reactivity A77,1726” value in the data set with antibody to FK778 (A77,1726 50 μg/mL, High FK778) is given as 13%; with antibody to FK778 (A77,1726 50 μg/mL, Low FK778) it was 43%; in the data set on antibody to FK778 (A77,1726 50 μg/mL, Med FK778), 24%; with antibody to FK778 (A77,1726 100 μg/mL, High FK778), 23%; with antibody to FK778 (A77,1726 100 μg/mL, Low FK778), 42%; with antibody to FK778 (A77,1726 100 μg/mL, Med FK778), 31%. Besides, the “% Cross-reactivity A77,1726” value is listed as 34% in the data set on antibody to FK778 (A77,1726 200 μg/mL, High FK778); 42% in the data set on antibody to FK778 (A77,1726 200 μg/mL, Low FK778); 37% in the data set with antibody to FK778 (A77,1726 200 μg/mL, Med FK778); 47% with antibody to FK778 (A77,1726 200 μg/mL, Zero FK778). The “A77,1726 measured as FK778” value with antibody to FK778 (A77,1726 50 μg/mL, High FK778) turned out to be 152.9 µg/mL; in the data set on antibody to FK778 (A77,1726 50 μg/mL, Low FK778), 42.3 µg/mL; with antibody to FK778 (A77,1726 50 μg/mL, Med FK778), 85 µg/mL; in the data set with antibody to FK778 (A77,1726 100 μg/mL, High FK778) it was 170.1 µg/mL; with antibody to FK778 (A77,1726 100 μg/mL, Low FK778), 62.6 µg/mL; in the data set with antibody to FK778 (A77,1726 100 μg/mL, Med FK778), 103.4 µg/mL. Also, the “A77,1726 measured as FK778” value stood at 209.3 µg/mL in the data set on antibody to FK778 (A77,1726 200 μg/mL, High FK778); 104.8 µg/mL with antibody to FK778 (A77,1726 200 μg/mL, Low FK778); 145.5 µg/mL in the data set on antibody to FK778 (A77,1726 200 μg/mL, Med FK778); 94.9 µg/mL in the data set with antibody to FK778 (A77,1726 200 μg/mL, Zero FK778). Moreover, in the data set with antibody to FK778 (defined as greater than 5 μg/mL (without FK778) or greater than 10% (with FK778)), the Interference result was “Interference was observed”. The plasma half-life in data set [1] was 15 to 18 days.

Regarding `C#CCC/C(O)=C(\C#N)C(=O)Nc1ccc(C(F)(F)F)cc1` [FK778], the “plasma half-life compared with A77 1726” value in data set [1] is on record as “shorter”.
